Earlier results in patent US20070281983A1, “Creatine analog prodrugs, compositions and uses thereof” (XenoPort, Inc., priority 2006, published 2007).
Like-named read-outs stand apart in the source and are kept apart here.

How the values were obtained:
[1] = animals, diet containing up to 1% cyclocreatine
[2] = healthy volunteers, oral creatine administration
[3] = not given; remark: listed apart in the source

In the case of `NC1=NCCN1CC(=O)O` [cyclocreatine], the adverse effects [1] is listed as “do not exhibit adverse effects”.
For `CN(CC(=O)O)C(=N)N.O` [creatine monohydrate], the adverse side effects (athletes and body builders, 2-3 gm/day) is listed as “without adverse side effects”.
In the case of `CN(CC(=O)O)C(=N)N` [creatine, Creatine], the “increase in cerebral creatine phosphate” value [2] is listed as “about 10%”, the “overall increase in creatine phosphate levels” value ([3]; creatine supplementation, typically takes weeks) is listed as < 50% and the “duration of increases in tissue creatine phosphate levels” value ([3]; following oral creatine supplementation) is listed as > 14 days.
In the case of `CN(CC(=O)O)C(=N)NP(=O)(O)O` [creatine phosphate], the adverse side effects (patients with cardiac diseases, intravenous injection up to 8 gm/day) is listed as “without adverse side effects”.
